Results from PubChem BioAssay (NCI).
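Protocol summary: plate cells (96-well), add compound at 5 concentrations, incubate 48 h, interpolate endpoints linearly. The concentration for full growth arrest is given as TGI.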

What follows are compounds tested on LOX IMVI melanoma (assay: NCI anticancer screen, dose series, 48 h).

SMILES	TGI
CCOC(=O)/C(=C/c1ccco1)P(=O)(OCC)OCC	> 100 µM
O=C(Nc1ccc(S(=O)(=O)N[C@@H](C(=O)O)c2ccccc2)cc1)c1ccc(F)cc1	> 100 µM
CC(C)(C)c1nc2c(o1)C(=Nc1ccc(F)cc1)c1ccccc1C2=O	13 µM
C=C1CC2C(=O)N(c3ccccc3)C(=O)C2CC1n1[nH]c(=O)n(Cc2ccccc2)c1=O (stereo not drawn)	> 100 µM
c1ccc2c(c1)N=C(c1cccc3ccccc13)CC(c1cccc3ccccc13)S2 (stereo not drawn)	11.4 µM
NS(=O)(=O)c1ccc(NC(=O)c2cccc3c(=O)c4ccccc4[nH]c23)cc1	> 100 µM
COc1ccc(C2=NC(C)(C)CO2)cc1	> 100 µM

What follows are compounds tested on T-47D breast (assay: NCI anticancer screen, dose series, 48 h).

SMILES	TGI
CC(C)(C)c1nc2c(o1)C(=Nc1ccc(F)cc1)c1ccccc1C2=O	> 100 µM

What follows are compounds tested on MDA-MB-231 breast (assay: NCI anticancer screen, dose series, 48 h).

SMILES	TGI
CC(C)(C)c1nc2c(o1)C(=Nc1ccc(F)cc1)c1ccccc1C2=O	> 100 µM

What follows are compounds tested on SNB-19 CNS (assay: NCI anticancer screen, dose series, 48 h).

SMILES	TGI
O=C(Nc1ccc(S(=O)(=O)N[C@@H](C(=O)O)c2ccccc2)cc1)c1ccc(F)cc1	> 100 µM
CC(C)(C)c1nc2c(o1)C(=Nc1ccc(F)cc1)c1ccccc1C2=O	26.6 µM
C=C1CC2C(=O)N(c3ccccc3)C(=O)C2CC1n1[nH]c(=O)n(Cc2ccccc2)c1=O (stereo not drawn)	> 100 µM
c1ccc2c(c1)N=C(c1cccc3ccccc13)CC(c1cccc3ccccc13)S2 (stereo not drawn)	12.9 µM
NS(=O)(=O)c1ccc(NC(=O)c2cccc3c(=O)c4ccccc4[nH]c23)cc1	> 100 µM
COc1ccc(C2=NC(C)(C)CO2)cc1	> 100 µM

Each compound was assayed on 786-0 renal (assay: NCI anticancer screen, dose series, 48 h).

SMILES	TGI
CCOC(=O)/C(=C/c1ccco1)P(=O)(OCC)OCC	> 100 µM
O=C(Nc1ccc(S(=O)(=O)N[C@@H](C(=O)O)c2ccccc2)cc1)c1ccc(F)cc1	> 100 µM
CC(C)(C)c1nc2c(o1)C(=Nc1ccc(F)cc1)c1ccccc1C2=O	52.5 µM
C=C1CC2C(=O)N(c3ccccc3)C(=O)C2CC1n1[nH]c(=O)n(Cc2ccccc2)c1=O (stereo not drawn)	> 100 µM
c1ccc2c(c1)N=C(c1cccc3ccccc13)CC(c1cccc3ccccc13)S2 (stereo not drawn)	13.5 µM
NS(=O)(=O)c1ccc(NC(=O)c2cccc3c(=O)c4ccccc4[nH]c23)cc1	> 100 µM
COc1ccc(C2=NC(C)(C)CO2)cc1	> 100 µM

The compounds below were run on HCT-15 colon (assay: NCI anticancer screen, dose series, 48 h).

SMILES	TGI
CCOC(=O)/C(=C/c1ccco1)P(=O)(OCC)OCC	> 100 µM
O=C(Nc1ccc(S(=O)(=O)N[C@@H](C(=O)O)c2ccccc2)cc1)c1ccc(F)cc1	> 100 µM
CC(C)(C)c1nc2c(o1)C(=Nc1ccc(F)cc1)c1ccccc1C2=O	33.8 µM
C=C1CC2C(=O)N(c3ccccc3)C(=O)C2CC1n1[nH]c(=O)n(Cc2ccccc2)c1=O (stereo not drawn)	> 100 µM
c1ccc2c(c1)N=C(c1cccc3ccccc13)CC(c1cccc3ccccc13)S2 (stereo not drawn)	22.5 µM
NS(=O)(=O)c1ccc(NC(=O)c2cccc3c(=O)c4ccccc4[nH]c23)cc1	> 100 µM
COc1ccc(C2=NC(C)(C)CO2)cc1	> 100 µM

The compounds below were run on EKVX NSCLC (assay: NCI anticancer screen, dose series, 48 h).

SMILES	TGI
CCOC(=O)/C(=C/c1ccco1)P(=O)(OCC)OCC	> 100 µM
O=C(Nc1ccc(S(=O)(=O)N[C@@H](C(=O)O)c2ccccc2)cc1)c1ccc(F)cc1	> 100 µM
CC(C)(C)c1nc2c(o1)C(=Nc1ccc(F)cc1)c1ccccc1C2=O	> 83.5 µM
C=C1CC2C(=O)N(c3ccccc3)C(=O)C2CC1n1[nH]c(=O)n(Cc2ccccc2)c1=O (stereo not drawn)	> 100 µM
c1ccc2c(c1)N=C(c1cccc3ccccc13)CC(c1cccc3ccccc13)S2 (stereo not drawn)	28.7 µM
NS(=O)(=O)c1ccc(NC(=O)c2cccc3c(=O)c4ccccc4[nH]c23)cc1	> 100 µM
COc1ccc(C2=NC(C)(C)CO2)cc1	> 100 µM

The compounds below were run on ACHN renal (assay: NCI anticancer screen, dose series, 48 h).

SMILES	TGI
CCOC(=O)/C(=C/c1ccco1)P(=O)(OCC)OCC	> 100 µM
O=C(Nc1ccc(S(=O)(=O)N[C@@H](C(=O)O)c2ccccc2)cc1)c1ccc(F)cc1	> 100 µM
CC(C)(C)c1nc2c(o1)C(=Nc1ccc(F)cc1)c1ccccc1C2=O	32.1 µM
C=C1CC2C(=O)N(c3ccccc3)C(=O)C2CC1n1[nH]c(=O)n(Cc2ccccc2)c1=O (stereo not drawn)	> 100 µM
c1ccc2c(c1)N=C(c1cccc3ccccc13)CC(c1cccc3ccccc13)S2 (stereo not drawn)	23.5 µM
NS(=O)(=O)c1ccc(NC(=O)c2cccc3c(=O)c4ccccc4[nH]c23)cc1	> 100 µM
COc1ccc(C2=NC(C)(C)CO2)cc1	> 100 µM

These compounds were tested on RPMI-8226 leukemia (assay: NCI anticancer screen, dose series, 48 h).

SMILES	TGI
CCOC(=O)/C(=C/c1ccco1)P(=O)(OCC)OCC	> 100 µM
O=C(Nc1ccc(S(=O)(=O)N[C@@H](C(=O)O)c2ccccc2)cc1)c1ccc(F)cc1	> 100 µM
CC(C)(C)c1nc2c(o1)C(=Nc1ccc(F)cc1)c1ccccc1C2=O	> 100 µM
C=C1CC2C(=O)N(c3ccccc3)C(=O)C2CC1n1[nH]c(=O)n(Cc2ccccc2)c1=O (stereo not drawn)	> 100 µM
c1ccc2c(c1)N=C(c1cccc3ccccc13)CC(c1cccc3ccccc13)S2 (stereo not drawn)	4.85 µM
NS(=O)(=O)c1ccc(NC(=O)c2cccc3c(=O)c4ccccc4[nH]c23)cc1	> 100 µM
COc1ccc(C2=NC(C)(C)CO2)cc1	> 100 µM

What follows are compounds tested on UACC-257 melanoma (assay: NCI anticancer screen, dose series, 48 h).

SMILES	TGI
CCOC(=O)/C(=C/c1ccco1)P(=O)(OCC)OCC	> 100 µM
O=C(Nc1ccc(S(=O)(=O)N[C@@H](C(=O)O)c2ccccc2)cc1)c1ccc(F)cc1	> 100 µM
CC(C)(C)c1nc2c(o1)C(=Nc1ccc(F)cc1)c1ccccc1C2=O	8.41 µM
C=C1CC2C(=O)N(c3ccccc3)C(=O)C2CC1n1[nH]c(=O)n(Cc2ccccc2)c1=O (stereo not drawn)	> 100 µM
c1ccc2c(c1)N=C(c1cccc3ccccc13)CC(c1cccc3ccccc13)S2 (stereo not drawn)	31.8 µM
NS(=O)(=O)c1ccc(NC(=O)c2cccc3c(=O)c4ccccc4[nH]c23)cc1	> 100 µM
COc1ccc(C2=NC(C)(C)CO2)cc1	> 100 µM

These compounds were tested on HL-60(TB) leukemia (assay: NCI anticancer screen, dose series, 48 h).

SMILES	TGI
CCOC(=O)/C(=C/c1ccco1)P(=O)(OCC)OCC	> 100 µM
CC(C)(C)c1nc2c(o1)C(=Nc1ccc(F)cc1)c1ccccc1C2=O	> 44.9 µM
C=C1CC2C(=O)N(c3ccccc3)C(=O)C2CC1n1[nH]c(=O)n(Cc2ccccc2)c1=O (stereo not drawn)	> 100 µM
c1ccc2c(c1)N=C(c1cccc3ccccc13)CC(c1cccc3ccccc13)S2 (stereo not drawn)	3.56 µM
NS(=O)(=O)c1ccc(NC(=O)c2cccc3c(=O)c4ccccc4[nH]c23)cc1	> 100 µM
COc1ccc(C2=NC(C)(C)CO2)cc1	> 100 µM

The compounds below were run on SF-539 CNS (assay: NCI anticancer screen, dose series, 48 h).

SMILES	TGI
CCOC(=O)/C(=C/c1ccco1)P(=O)(OCC)OCC	> 100 µM
O=C(Nc1ccc(S(=O)(=O)N[C@@H](C(=O)O)c2ccccc2)cc1)c1ccc(F)cc1	> 100 µM
CC(C)(C)c1nc2c(o1)C(=Nc1ccc(F)cc1)c1ccccc1C2=O	14.2 µM
C=C1CC2C(=O)N(c3ccccc3)C(=O)C2CC1n1[nH]c(=O)n(Cc2ccccc2)c1=O (stereo not drawn)	> 100 µM
c1ccc2c(c1)N=C(c1cccc3ccccc13)CC(c1cccc3ccccc13)S2 (stereo not drawn)	14.5 µM
NS(=O)(=O)c1ccc(NC(=O)c2cccc3c(=O)c4ccccc4[nH]c23)cc1	> 100 µM
COc1ccc(C2=NC(C)(C)CO2)cc1	> 100 µM

These compounds were tested on XF 498 CNS (assay: NCI anticancer screen, dose series, 48 h).

SMILES	TGI
CCOC(=O)/C(=C/c1ccco1)P(=O)(OCC)OCC	> 100 µM
O=C(Nc1ccc(S(=O)(=O)N[C@@H](C(=O)O)c2ccccc2)cc1)c1ccc(F)cc1	> 100 µM
CC(C)(C)c1nc2c(o1)C(=Nc1ccc(F)cc1)c1ccccc1C2=O	3.94 µM
C=C1CC2C(=O)N(c3ccccc3)C(=O)C2CC1n1[nH]c(=O)n(Cc2ccccc2)c1=O (stereo not drawn)	> 100 µM
c1ccc2c(c1)N=C(c1cccc3ccccc13)CC(c1cccc3ccccc13)S2 (stereo not drawn)	22.1 µM
NS(=O)(=O)c1ccc(NC(=O)c2cccc3c(=O)c4ccccc4[nH]c23)cc1	> 100 µM
COc1ccc(C2=NC(C)(C)CO2)cc1	> 100 µM

Each compound was assayed on TK-10 renal (assay: NCI anticancer screen, dose series, 48 h).

SMILES	TGI
CCOC(=O)/C(=C/c1ccco1)P(=O)(OCC)OCC	> 100 µM
O=C(Nc1ccc(S(=O)(=O)N[C@@H](C(=O)O)c2ccccc2)cc1)c1ccc(F)cc1	> 100 µM
CC(C)(C)c1nc2c(o1)C(=Nc1ccc(F)cc1)c1ccccc1C2=O	68.3 µM
C=C1CC2C(=O)N(c3ccccc3)C(=O)C2CC1n1[nH]c(=O)n(Cc2ccccc2)c1=O (stereo not drawn)	> 100 µM
c1ccc2c(c1)N=C(c1cccc3ccccc13)CC(c1cccc3ccccc13)S2 (stereo not drawn)	25.8 µM
NS(=O)(=O)c1ccc(NC(=O)c2cccc3c(=O)c4ccccc4[nH]c23)cc1	> 100 µM
COc1ccc(C2=NC(C)(C)CO2)cc1	> 100 µM

Each compound was assayed on SF-268 CNS (assay: NCI anticancer screen, dose series, 48 h).

SMILES	TGI
CCOC(=O)/C(=C/c1ccco1)P(=O)(OCC)OCC	> 100 µM
O=C(Nc1ccc(S(=O)(=O)N[C@@H](C(=O)O)c2ccccc2)cc1)c1ccc(F)cc1	> 100 µM
CC(C)(C)c1nc2c(o1)C(=Nc1ccc(F)cc1)c1ccccc1C2=O	> 62.9 µM
C=C1CC2C(=O)N(c3ccccc3)C(=O)C2CC1n1[nH]c(=O)n(Cc2ccccc2)c1=O (stereo not drawn)	> 100 µM
c1ccc2c(c1)N=C(c1cccc3ccccc13)CC(c1cccc3ccccc13)S2 (stereo not drawn)	20.4 µM
NS(=O)(=O)c1ccc(NC(=O)c2cccc3c(=O)c4ccccc4[nH]c23)cc1	> 100 µM
COc1ccc(C2=NC(C)(C)CO2)cc1	> 100 µM

These compounds were tested on HCC-2998 colon (assay: NCI anticancer screen, dose series, 48 h).

SMILES	TGI
CCOC(=O)/C(=C/c1ccco1)P(=O)(OCC)OCC	> 100 µM
O=C(Nc1ccc(S(=O)(=O)N[C@@H](C(=O)O)c2ccccc2)cc1)c1ccc(F)cc1	> 100 µM
CC(C)(C)c1nc2c(o1)C(=Nc1ccc(F)cc1)c1ccccc1C2=O	20.5 µM
C=C1CC2C(=O)N(c3ccccc3)C(=O)C2CC1n1[nH]c(=O)n(Cc2ccccc2)c1=O (stereo not drawn)	> 100 µM
c1ccc2c(c1)N=C(c1cccc3ccccc13)CC(c1cccc3ccccc13)S2 (stereo not drawn)	11.2 µM
NS(=O)(=O)c1ccc(NC(=O)c2cccc3c(=O)c4ccccc4[nH]c23)cc1	> 100 µM

These compounds were tested on HS 578T breast (assay: NCI anticancer screen, dose series, 48 h).

SMILES	TGI
CC(C)(C)c1nc2c(o1)C(=Nc1ccc(F)cc1)c1ccccc1C2=O	> 45.7 µM
